Experiment: whitening of stained extracted teeth, color scored against a classical VITA shade guide
Settings: for tooth whitening (color vs classical VITA shade guide): teeth left in solution overnight, all teeth
Excerpt: To evaluate these solutions, a collection of extracted teeth was examined and selected for dark color stains ranging from light yellow to brown. These teeth were then categorized and scored for color by comparing to a classical VITA shade guide. Then half of the teeth were then placed in a fresh solution of 15% sodium dithionite in water with unadjusted pH. The second half were placed in the solution adjusted to above pH 10. All teeth became whiter after remaining in solution overnight, especially light yellow to yellow stained teeth.

O=S([O-])S(=O)[O-].[Na+].[Na+] [sodium dithionite]
tooth whitening of brown stained teeth (15% sodium dithionite in water (unadjusted pH or above pH 10), overnight, brown teeth, less effect than light yellow to yellow teeth): whitened significantly
tooth whitening (color vs classical VITA shade guide) (15% sodium dithionite solution adjusted to above pH 10): became whiter
tooth whitening (color vs classical VITA shade guide) (fresh solution of 15% sodium dithionite in water, unadjusted pH): became whiter
